How the values were obtained:
[1] = tested on: wounds such as lacerations; assay: Lacerations treated with continuous topical T-3 or TriAc; type: in vivo, human; conditions: continuous topical application, in approximately three days
burns = conditions: small quantities in drinking water, excision and grafting, after 5 weeks; cited from earlier work
dermis and epidermis = conditions: topical application, not intraperitoneal; cited from earlier work
excisional wounds = conditions: cited from earlier work
heart wounds = conditions: 500 ngs continuously, slow release pellet; cited from earlier work
[2] = tested on: burned and blistered area of the right thigh; assay: Topical T-3 in Silvadene ointment on a burn
TSH = conditions: topically applied, humans; cited from earlier work

signs of inflammation [1] | Compound | healing rate of burns (burns) | growth of the dermis and epidermis (dermis and epidermis) | healing of excisional non thermal wounds (excisional wounds; eurythroid mouse, daily) | wound healing (excisional wounds; intraperitoneal, hypothyroid mice) | healing of heart wounds (heart wounds) | cellular debris and signs of inflammation ([2]; T-3 1 mg in 30 ml Silvadene ointment, daily for two weeks) | appearance of the treated area ([2]; after 6 weeks) | effect on TSH levels or other thyroid hormone function tests (TSH)
increased signs of inflammation | N[C@@H](Cc1cc(I)c(Oc2ccc(O)c(I)c2)c(I)c1)C(=O)O [T-3, 3,5,3′-triiodothyronine] | no change in the healing rate | affect the growth of the dermis and epidermis | accelerates the healing | improved wound healing | decreased healing of heart wounds | more cellular debris and signs of inflammation | less reddened areas and had less discolored skin | 
 | N[C@@H](Cc1cc(I)c(Oc2cc(I)c(O)c(I)c2)c(I)c1)C(=O)O [T-4, thyroxine] |  |  |  |  |  |  |  | no effect on TSH levels

— US20100047332A1, “Treatments for burns using thyroid hormone compound in a human” (priority 2005, published 2010)
